Reference: article PMC11838007, “Contribution of telacebec to novel drug regimens in a murine tuberculosis model” (Antimicrobial Agents and Chemotherapy, 2024)
≈ marks a conversion by molar mass, not a printed value. Where two headings read alike, the source gives them in different places.

Experiments:
[1] = test system: M. tuberculosis H37Rv; assay type: in vivo, Mycobacterium tuberculosis
[2] = test system: M. tuberculosis H37Rv; settings: in vivo, 25 mg/kg; cited from earlier work
[3] = test system: M. tuberculosis HN878; experiment: microbe, parasite or virus in culture; assay type: cell-based
[4] = test system: M. tuberculosis H37Rv; experiment: microbe, parasite or virus in culture; assay type: cell-based
[5] = test system: M. tuberculosis HN878; experiment: microbe, parasite or virus in culture; assay type: cell-based; remark: listed apart in the source
[6] = test system: M. tuberculosis H37Rv; experiment: microbe, parasite or virus in culture; assay type: cell-based; settings: Mycobacterium tuberculosis, read-out: MIC, 7H9 Broth, H37Rv
[7] = test system: M. tuberculosis H37Rv; experiment: Pyrazinamide susceptibility by MGIT; assay type: cell-based; settings: Mycobacterium tuberculosis, susceptibility determined by MGIT, read-out: MIC, H37Rv (7H9 Broth)
[8] = test system: M. tuberculosis HN878; experiment: Pyrazinamide susceptibility by MGIT; assay type: cell-based; settings: Mycobacterium tuberculosis, susceptibility determined by MGIT, read-out: MIC, HN878 (7H9 Broth)
[9] = plasma, week 4, Experiment 3, mean ± SD; for Concentration of Telacebec at steady state, 1h: 1 h post-dose; for Concentration of Telacebec at steady state, 5h: 5 h post-dose; for Concentration of Telacebec at steady state, 24h: 24 h post-dose
Description: For S587 and its M3 metabolite, the mean concentrations were compared between mice administered S587 alone and mice administered S587 in combination with T 10 mg/kg (T10), T 50 mg/kg (T50), and T10 plus C. For T, the mean concentrations were compared between mice administered T10 alone and T10 in combination with S587 and S587 + C, as well as between mice administered T50 alone and T50 in combination with S587.
Multidose PK of T and TBAJ-587 in plasma was characterized in infected female BALB/c mice (Charles River Laboratories, Wilmington, MA) receiving oral doses once daily. In week 4 of treatment in Experiment 3, three mice per group per time point were sampled by submandibular bleed at 1, 5, and 24 hours post-dose. Drug concentrations were quantified by a validated high-performance liquid chromatography/mass spectrometry method (Alliance Pharma Inc, Devault, PA).

[10] = test system: M. tuberculosis; settings: phase 2a study; cited from earlier work
[11] = Mycobacterium tuberculosis, HN878; read-out: MIC, 7H9 Broth, HN878
[12] = Mycobacterium tuberculosis, H37RV; read-out: MIC, 7H11 Agar, H37Rv
[13] = Mycobacterium tuberculosis, HN878; read-out: MIC, 7H11 Agar, HN878

COc1cc([C@](O)(CCN(C)C)[C@@H](c2cc3cc(Br)ccc3nc2OC)c2cccc(OC)c2F)cc(OC)n1 [TBAJ-587]
mean (±SD) log10 CFU counts, W4 ([1]; in vivo): 3.40 ± 0.47 log10 CFU | reduction of bacterial burden over 4 weeks ([1]; in vivo, 12.5 mg/kg): more than 4 log10 | reduction of lung CFU count over 4 weeks [2]: approximately 5 log10 | MIC ([3]; Mycobacterium tuberculosis, HN878, read-out: MIC, 7H11 Agar, HN878): 0.004 µg/mL (≈ 0.00651 µM) | MIC ([4]; Mycobacterium tuberculosis, H37RV, read-out: MIC, 7H11 Agar, H37Rv): 0.008 µg/mL (≈ 0.013 µM)

CC(=O)NC[C@H]1CN(c2ccc(N3CCOCC3)c(F)c2)C(=O)O1 [Linezolid, linezolid]
MIC [5, 11]: 0.5 µg/mL (≈ 1.48 µM) | MIC [6]: 1 µg/mL (≈ 2.96 µM) | MIC [4, 12]: 0.5 µg/mL (≈ 1.48 µM)

COc1ncnc(Cn2cc(C(=O)NCCO)c3ncc(C)cc32)c1C [TBA-7371]
MIC [3, 13]: 0.5 µg/mL (≈ 1.41 µM) | MIC [4, 12]: 0.25 µg/mL (≈ 0.703 µM)

CO[C@H]1/C=C/O[C@@]2(C)Oc3c(C)c(O)c4c(O)c(c(/C=N/N5CCN(C)CC5)c(O)c4c3C2=O)NC(=O)/C(C)=C\C=C\[C@H](C)[C@H](O)[C@@H](C)[C@@H](O)[C@@H](C)[C@H](OC(C)=O)[C@@H]1C [Rifampin]
MIC ([5]; Mycobacterium tuberculosis, HN878, read-out: MIC, 7H9 Broth, HN878): 0.25 µg/mL (≈ 0.304 µM) | MIC [6]: 0.25 µg/mL (≈ 0.304 µM)

COc1nc2ccc(Br)cc2cc1[C@@H](c1ccccc1)[C@@](O)(CCN(C)C)c1cccc2ccccc12 [Bedaquiline, bedaquiline]
MIC [3, 13]: 0.03 µg/mL (≈ 0.054 µM) | MIC [6]: 0.25 µg/mL (≈ 0.45 µM) | MIC [4, 12]: 0.03 µg/mL (≈ 0.054 µM)

COc1c(N2C[C@@H]3CCCN[C@@H]3C2)c(F)cc2c(=O)c(C(=O)O)cn(C3CC3)c12 [Moxifloxacin, moxifloxacin]
MIC [5, 11]: 0.25 µg/mL (≈ 0.623 µM) | MIC [6]: 0.5 µg/mL (≈ 1.25 µM)

O=[N+]([O-])c1cn2c(n1)OC[C@@H](OCc1ccc(OC(F)(F)F)cc1)C2 [Pretomanid, pretomanid]
MIC [5, 11]: 0.06 µg/mL (≈ 0.167 µM) | MIC [3, 13]: 0.125 µg/mL (≈ 0.348 µM) | MIC [6]: 0.125 µg/mL (≈ 0.348 µM) | MIC [4, 12]: 0.06 µg/mL (≈ 0.167 µM)

CC(C)/N=c1\cc2n(-c3ccc(Cl)cc3)c3ccccc3nc-2cc1Nc1ccc(Cl)cc1 [Clofazimine, clofazimine]
MIC [3, 13]: 0.25 µg/mL (≈ 0.528 µM) | MIC [4, 12]: 0.25 µg/mL (≈ 0.528 µM)

NC(=O)c1cnccn1 [Pyrazinamide, pyrazinamide]
MIC [7]: < 100 µg/mL | MIC [8]: < 100 µg/mL

COc1cc([C@](O)(CCN(C)C)[C@@H](c2cc3cc(Br)ccc3nc2OC)c2cc(OC)nc(OC)c2OC)cc(OC)n1 [TBAJ-876]
reduction of CFU counts over 4 weeks compared to D0 ([1]; Experiment 2, S876 6.25 mg/kg, 4 weeks): more than 3.5 log10 | mean (±SD) log10 CFU counts, W4 ([1]; Experiment 2, lungs, 4 weeks of treatment, doses mg/kg/dose as subscripts, bid = twice daily, D0 7.51 ± 0.06, lower limit of detection 1.66 log10): 3.74 ± 0.44 log10 CFU | MIC [3, 13]: 0.004 µg/mL (≈ 0.00608 µM) | MIC [4, 12]: 0.002 to 0.004 µg/mL (≈ 0.00304 to 0.00608 µM)

CCc1nc2ccc(Cl)cn2c1C(=O)NCc1ccc(N2CCC(c3ccc(OC(F)(F)F)cc3)CC2)cc1 [Telacebec, telacebec]
effect of single drug treatment on lung CFU counts compared to D0 ([1]; Experiment 3, T at 10 and 50 mg/kg, 4 weeks, no dose-response): bacteriostatic | mean (±SD) log10 CFU counts, W4 ([1]; Experiment 3, lungs, 4 weeks of treatment, T at 10 mg/kg where given, S587 12.5, C 12.5, Z 150 mg/kg, D0 7.52 ± 0.13): 7.65 ± 0.05 log10 CFU | mean (±SD) log10 CFU counts, W4 ([1]; Experiment 3, lungs, 4 weeks of treatment, T at 50 mg/kg, S587 12.5 mg/kg, D0 7.52 ± 0.13): 7.70 ± 0.06 log10 CFU | Concentration of Telacebec at steady state, 1h ([9]; T 10 mg/kg): 1462 ± 435 ng/mL | Concentration of Telacebec at steady state, 1h ([9]; T 50 mg/kg): 2642 ± 1857 ng/mL | Concentration of Telacebec at steady state, 5h ([9]; T 10 mg/kg): 2265 ± 102 ng/mL | Concentration of Telacebec at steady state, 5h ([9]; T 50 mg/kg): 7310 ± 3990 ng/mL | Concentration of Telacebec at steady state, 24h ([9]; T 10 mg/kg): 921 ± 337 ng/mL | Concentration of Telacebec at steady state, 24h ([9]; T 50 mg/kg): 3008 ± 330 ng/mL | MIC [3, 13]: 0.002 µg/mL (≈ 0.00359 µM) | early bactericidal activity in TB patients [10]: dose-dependent early bactericidal activity | MIC ([4]; Mycobacterium tuberculosis, 432 h; parental H37Rv strain; agar proportion method; […]; read-out: MIC): 0.008 µg/mL (≈ 0.0144 µM) | MIC [4, 12]: 0.008 µg/mL (≈ 0.0144 µM)
